# Source: paper PMC7004151, “Synthesis and Structure‐Activity Relationships of N‐(4‐Benzamidino)‐Oxazolidinones: Potent and Selective Inhibitors of Kallikrein‐Related Peptidase 6” (Chemmedchem, 2019)
# Read-outs that look alike come from different tables or passages of the source.
# Tests used:
# KLK6 [1] = conditions: cited from earlier work
# Human Factor Xa = target: T1, Human Factor Xa (Homo sapiens, UniProt P00742); test: Factor Xa enzyme inhibition assay; type: biochemical; conditions: read-out: Factor Xa pIC50 (converted)
# T1 construct: Human Factor Xa was purchased from Enzo Life Sciences; purchased Enzo Life Sciences
# Description: (§1) Human thrombin was purchased from Biopur. Human trypsin was purchased from Polymun Scientific. Human Factor Xa was purchased from Enzo Life Sciences. Thrombin (20 nM), trypsin (0.000015 %) or Factor Xa (10 nM) were assayed in a similar manner to the KLKs but were incubated with compound for 20 min at room temperature in assay buffer (50 mM Tris HCl, pH 7.6, 100 mM NaCl, 1 mg/ml CHAPS, 0.05 % bovine serum albumin (BSA), 1 mM dithiothreitol (DTT)) before the addition of 5 μM, 2.5 μM or 1.5 μM Rhodamine 110 substrate (Cambridge bioscience ltd) respectively. Fluorescence intensity was then read at ex/em 485/535 following incubation for 1 h at room temperature (thrombin and factor Xa) or 20 min (trypsin).
# Human trypsin = target: T2, Human trypsin (Homo sapiens, UniProt P07477); test: Trypsin enzyme inhibition assay; type: biochemical; conditions: read-out: Trypsin pIC50 (converted)
# T2 construct: purchased Polymun Scientific
# Description: Human thrombin was purchased from Biopur. Human trypsin was purchased from Polymun Scientific. Human Factor Xa was purchased from Enzo Life Sciences. […] Fluorescence intensity was then read at ex/em 485/535 following incubation for 1 h at room temperature (thrombin and factor Xa) or 20 min (trypsin).
# KLK6 [2] = target: T3, KLK6 (Homo sapiens, UniProt Q92876); test: SPR binding assay (Biacore T200, KLK6 immobilized on CM5 chip); conditions: read-out: KLK6 pKD (converted)
# Description: High Throughput Screen: The European Lead Factory library of ∼350,000 compounds was used for high throughput screening at the Pivot Park Screening Center facilities in Oss, The Netherlands. HighRes Biosolutions robotic infrastructure using Cellario software was programmed to perform screening of 281 1536‐well plates. Using the primary KLK6 fluorescent intensity (FI) assay (see below), 7794 compounds having a Z‐score≤‐4 were selected for further follow‐up. An additional set of compounds was added based on Bayesian modeling to include potential false negatives in the hit confirmation. […] Upon testing of these compounds using SPR and LC‐MS, a qualified hit list (QHL) was registered containing 50 compounds. For SPR, Biacore T200 was used and KLK6 was immobilized onto a CM5 chip. 226 test compounds were screened at 4 concentrations: 20, 4, 0.8 and 0.16 μM in running buffer: 50 mM Tris‐HCl, 1 mM EDTA pH 7.5, 150 mM NaCl, 0.05 % Tween 20, 3 % DMSO at 25 °C. Control injections of 5 μM 1 were used throughout the screen to ensure that KLK6 was stable and had not been blocked by potential irreversible binders/denaturants. An 8 point 1 in 3 dilution series of 1 (50 μM to 0.02 μM) was also applied at the beginning and end of each screening day.
# KLK6 [3] = target: T3, KLK6; test: KLK6 enzymatic inhibition assay (fluorogenic Boc-Phe-Ser-Arg-AMC substrate); type: biochemical; design: made in house; conditions: for IC50: read-out: KLK6 pIC50 (converted)
# Description: Using our previously published KLK6 assay format,21 we performed a HTS with the European Lead Factory (ELF),22 and tested ∼350,000 substances at 10 μM for their ability to reduce KLK6‐catalyzed hydrolysis of the fluorogenic Boc‐Phe‐Ser‐Arg‐AMC peptide.
# High Throughput Screen: The European Lead Factory library of ∼350,000 compounds was used for high throughput screening at the Pivot Park Screening Center facilities in Oss, The Netherlands. […] For SPR, Biacore T200 was used and KLK6 was immobilized onto a CM5 chip. […] An 8 point 1 in 3 dilution series of 1 (50 μM to 0.02 μM) was also applied at the beginning and end of each screening day.
# Enzyme inhibition assays: All chemicals were purchased from Sigma Aldrich (Gillingham, UK) unless otherwise stated.
# KLK8 = target: T4, KLK8 (Homo sapiens, UniProt O60259); test: KLK8 enzyme inhibition assay; type: biochemical; conditions: read-out: KLK8 pIC50 (converted)
# T4 construct: purchased 2B scientific
# T4 sequence (O60259 33-260): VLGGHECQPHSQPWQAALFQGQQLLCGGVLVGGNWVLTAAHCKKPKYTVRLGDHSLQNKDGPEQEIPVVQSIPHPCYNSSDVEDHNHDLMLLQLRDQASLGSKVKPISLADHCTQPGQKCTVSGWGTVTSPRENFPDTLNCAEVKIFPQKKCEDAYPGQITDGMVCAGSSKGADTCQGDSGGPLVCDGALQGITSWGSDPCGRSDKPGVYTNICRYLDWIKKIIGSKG
# Description: (§2) Enzyme inhibition assays: All chemicals were purchased from Sigma Aldrich (Gillingham, UK) unless otherwise stated. All experiments were conducted in 384 well black, low volume microplates (Greiner 784076) with a final volume of 20 μL and compounds were dispensed into assay plates using an ECHO 550 acoustic dispenser (Labcyte). KLK6 (5 nM) (prepared as in ref. 21) was incubated with test compounds for 30 min at room temperature in assay buffer (50 mM Tris, pH 7.5, 150 mM NaCl, 1 mM EDTA, 0.05 % tween 20, 0.1 % bovine serum albumin (BSA), 1 mM dithiothreitol (DTT)) before the reaction was started by addition of 20 μM Boc‐Phe‐Ser‐Arg‐AMC substrate (Bachem). Fluorescence intensity was read at ex/em 355/460 following incubation for 2 h in the dark at room temperature.
# (§3) Assays using KLK7 and KLK8 (2B scientific) were conducted in the same manner as for KLK6 with the following exceptions. Both KLK7 and KLK8 required activation before assaying. KLK7 was combined with an equal volume of 20 μg/ml thermolysin (R&D systems) in activation buffer (50 mM Tris, pH 7.5, 10 mM CaCl2, 150 mM NaCl and 0.05 % Brij‐L23) and incubated at 37 °C for 2 h, the reaction was stopped with the addition of 100 mM EDTA in stop solution (50 mM Tris, 150 mM NaCl, pH 8.5). KLK8 was combined with an equal volume of 0.4 mU/mL lysyl endopeptidase (Alpha laboratories) in activation buffer (50 mM Tris, pH 8.0) and incubated at 37 °C for 30 min. Activated KLK7 (40 nM) and KLK8 (25 nM) were assayed with 40 μM Mca‐RPKPVE‐Nval‐WRK(Dnp)‐NH2 fluorogenic MMP substrate (R&D systems) and 25 μM Boc‐V‐P‐R‐AMC substrate (R&D systems), respectively.
# KLK7 = target: T5, KLK7 (Homo sapiens, UniProt P49862); test: KLK7 enzyme inhibition assay; type: biochemical; conditions: read-out: KLK7 pIC50 (converted)
# T5 construct: purchased 2B scientific
# Description: as §2, §3
# KLK4 = KLK4 (Homo sapiens, UniProt Q9Y5K2); test: KLK4 inhibition (selectivity); type: biochemical; conditions: read-out: KLK4 pIC50 (converted)
# Source text: Table 3 Activity of synthesized inhibitors against KLK6 and related proteases. | column: KLK4^a
# Human thrombin = target: T6, Human thrombin (Homo sapiens, UniProt P00734); test: Thrombin enzyme inhibition assay; type: biochemical; conditions: read-out: Thrombin pIC50 (converted)
# T6 construct: Human thrombin was purchased from Biopur; purchased Biopur
# Description: as §1
# HCT116 cells [4] = test: HCT116 cell growth and viability; type: cell-based; conditions: at the tested concentrations (data not shown)
# Source text: We have previously shown that knockdown of KLK6 reduces migration and invasion of HCT116 cells in vitro.13 In order to test whether this effect could be recapitulated with small molecule KLK6 inhibitors, we measured the ability of 32 to reduce invasion of HCT116 cells. […] HCT116 cell growth and viability was not altered upon treatment with compounds 9 and 32 at the tested concentrations (data not shown).
# HCT116 cells [5] = test: HCT116 Matrigel invasion assay; type: cell-based; conditions: after 24 h; 9 at multiple concentrations; 32 at 50 nM and 500 nM
# Description: Figure 5 HCT116 cells were treated with 9 or 32 at the indicated concentrations and plated on Matrigel®‐coated filters. The upper chamber contained serum‐free medium, while the lower chamber contained 10 % fetal bovine serum. After 24 h, the number of invading cells was measured optically. (A) This figure is one representative example of four biological replicates, each with similar outcomes. Error bars are SEM. Technical replicates: DMSO and 9 at 5 nM (n=3); 9 at 50 and 500 nM and 32 at all concentrations (n=6). Statistical significance was calculated using an unpaired two‐tailed t‐test. n.s=p≥0.05; **=p<0.01; ***=p<0.001. (B) Representative images (Scale bar, […]) of stained invaded cells outside of the inserts 24 h hours after treatment with 9, 32, or DMSO solvent control at the indicated concentrations. Phase contrast images were taken with EVOS FL Cell imagine system FL Auto microscope (Bio‐Rad).
# Invasion assay: The HCT116 colorectal adenocarcinoma cell line (ATCC® CCL‐247™) was maintained in Dulbecco's Modified Eagle Medium (DMEM) with […] glucose, L‐glutamine w/o sodium pyruvate, supplemented with 10 % FBS and 1 % penicillin/streptomycin. […] The samples were transferred to a new 96 well plate and read at 560 nm on a Synergy 2 Multi‐Detection Microplate Reader (Bio‐Tek Instruments, Inc., Winooski, VT).
# [6] = HTS library sample, primary dose-response enzymatic inhibition assay
# [7] = resynthesized stereoisomers, enzymatic inhibition assay (Table 2)
# [8] = synthesized inhibitors (Table 3), 8.6 = assay limit
# Chain of KLK4 (Q9Y5K2 31-254, species assumed): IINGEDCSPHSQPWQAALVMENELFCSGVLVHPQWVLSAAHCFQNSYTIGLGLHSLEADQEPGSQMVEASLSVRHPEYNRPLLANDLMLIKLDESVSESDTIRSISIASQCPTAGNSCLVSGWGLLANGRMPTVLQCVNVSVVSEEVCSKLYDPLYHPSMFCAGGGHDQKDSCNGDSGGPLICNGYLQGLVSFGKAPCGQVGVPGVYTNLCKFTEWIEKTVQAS
# T1 sequence (P00742 235-488 limits assumed): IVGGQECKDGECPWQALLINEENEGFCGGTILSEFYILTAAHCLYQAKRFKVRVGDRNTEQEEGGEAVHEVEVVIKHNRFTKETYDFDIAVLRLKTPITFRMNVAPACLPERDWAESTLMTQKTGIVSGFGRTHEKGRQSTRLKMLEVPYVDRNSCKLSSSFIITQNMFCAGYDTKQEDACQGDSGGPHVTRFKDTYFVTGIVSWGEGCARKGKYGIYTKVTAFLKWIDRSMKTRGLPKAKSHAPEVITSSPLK
# T1 sequence (P00742 41-179 partner limits assumed): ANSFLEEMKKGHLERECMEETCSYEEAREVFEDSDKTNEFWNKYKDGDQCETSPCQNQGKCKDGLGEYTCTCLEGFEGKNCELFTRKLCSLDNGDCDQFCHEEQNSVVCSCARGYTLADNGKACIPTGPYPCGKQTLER
# T5 sequence (P49862 30-253, species assumed): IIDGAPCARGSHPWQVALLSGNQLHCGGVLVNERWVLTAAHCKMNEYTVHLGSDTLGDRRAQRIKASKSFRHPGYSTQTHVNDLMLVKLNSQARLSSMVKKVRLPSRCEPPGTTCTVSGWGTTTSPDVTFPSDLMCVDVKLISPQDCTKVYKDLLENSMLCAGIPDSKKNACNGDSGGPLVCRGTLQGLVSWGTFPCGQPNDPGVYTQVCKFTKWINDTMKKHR
smiles,measurement,setting,value
NCc1ccc(NC(=O)c2c([O-])ccc[n+]2Cc2nccn2Cc2ccccc2)cc1 [Compound 1],IC50,KLK6 [1]; published KLK6 inhibitors ref 18,1800 nM
O=C(Oc1cc(Cl)ccc1Cl)c1cc2cc(Cl)ccc2oc1=O [Compound 4],kinact/Ki,KLK6 [1]; covalent coumarin-based suicide inhibitor ref 20,131 ± 13 M⁻¹ s⁻¹
"COc1cccc([C@H](C)NC(=O)[C@H]2CN(c3ccc(C(=N)N)cc3)C(=O)O2)c1 [Compound 5, (5R)‐3‐(4‐carbamimidoylphenyl)‐N‐[(S)‐1‐(3‐methoxyphenyl)ethyl]‐2‐oxooxazolidine‐5‐carboxamide]",IC50,Human Factor Xa,> 20 µM
same,IC50,Human trypsin,5.01 µM
same,Kd,KLK6 [2],0.1 µM
same,IC50,KLK6 [3]; [6],63.1 nM
same,LipE,"KLK6 [3]; LipE=pIC50 – logP (KLK6 pIC50, ALogP)",4.79
same,IC50,KLK6 [3]; [7],251 nM
same,IC50,KLK6 [3]; [8],251 nM
same,IC50,KLK8,10 µM
same,IC50,KLK7,> 20 µM
same,IC50,KLK4,7.94 µM
same,IC50,Human thrombin,> 20 µM
N=C(N)c1ccc(N2CC(CC(=O)NCc3ccccc3C(F)(F)F)OC2=O)cc1 (centres unmarked) [Compound 6],Kd,KLK6 [2],12.6 µM
same,IC50,KLK6 [3]; [6],10000 nM
CCOC(=O)C[S+]([O-])CC1CN(c2ccc(C(=N)N)cc2)C(=O)O1 (centres unmarked) [Compound 7],Kd,KLK6 [2],20 µM
same,IC50,KLK6 [3]; [6],1580 nM
CCN(CC)C(=O)c1cccc(OCC2CN(c3ccc(C(=N)N)cc3)C(=O)O2)c1 (centres unmarked) [Compound 8],Kd,KLK6 [2],7.94 µM
same,IC50,KLK6 [3]; [6],7940 nM
COc1cccc([C@@H](C)NC(=O)[C@@H]2CN(c3ccc(C(=N)N)cc3)C(=O)O2)c1 [Compound 9],IC50,KLK6 [3]; [7],> 20000 nM
same,HCT116 cell growth and viability,HCT116 cells [4],not altered
same,invasion of HCT116 cells,HCT116 cells [5],no significant effect
"COc1cccc([C@H](C)NC(=O)[C@@H]2CCN(c3ccc(C(=N)N)cc3)C2)c1 [Compound 47, (3R)‐1‐(4‐carbamimidoylphenyl)‐N‐[(1S)‐1‐(3‐methoxyphenyl)ethyl]pyrrolidine‐3‐carboxamide]",IC50,Human Factor Xa,> 20 µM
same,IC50,Human trypsin,5.01 µM
same,IC50,KLK6 [3]; [8],794 nM
same,IC50,KLK8,7.94 µM
same,IC50,KLK7,> 20 µM
same,IC50,KLK4,1.26 µM
same,IC50,Human thrombin,> 20 µM
